Assay results published in US9475836B2, “Protopanoxadiol derivative, preparation method thereof and application thereof” (SHANG HAI INNOVATIVE RESEARCH CENTER OF TRADITIONAL CHINESE …, priority 2013, dated 2016).
Counter-ions that a name gives are not always drawn.

Tested on: CUMS rats
Assay: Rat chronic unpredictable mild stress depression model (CUMS) test, sucrose preference
Type: in vivo, Wistar rats
Details: for effect on sucrose water intake of CUMS rats: 0.375 mg/kg
Description: Rat Chronic Unpredictable Mild Stress Depression Model (CUMS) Test
Variety: Wistar rats; Sex: male; Body Weight: 200 g.
Compounds I and II (being compounds of Examples 1 and 5 respectively), venlafaxine hydrochloride
Experimental method comprises starting CUMS program after adaptively breeding the rats for 1 week.
1) Sucrose preference experiment: all animals were fed with 1% sucrose water within the first 24 h; during the subsequent 24 h, all the animals were simultaneously fed with 1% sucrose water and common drinking water, then fasted with water deprivation for 23 h. Subsequently sucrose preference experiment was performed: simultaneously feeding the animals with 1% sucrose water and common drinking water, and measuring the drinking amounts of sucrose water and common drinking water for animals in 1 h by weighing the drinking water bottles. The animals were grouped evenly according to the animal body weight, liquid consumption amount and sucrose water consumption, and subjected to chronic unpredictable mild stress stimulation.
2) CUMS experiment: the rats were alternately given tens of stress stimulation factors each week, so that the rats cannot predict the stimulation duration of each stress factor and the stimulation to be given subsequently. The stimulation factor includes: flash stimulation, noise stimulation, rat cage inclination; and strange smell environment feeding, fasting, water deprivation.
3) Detection method comprising: detecting liquid consumption amount after food-fasting and water-deprivation for 21 h each week, recording the body weight, total liquid intake, water intake and sucrose water intake of each animal, and calculating sucrose water preference percentage (preference=(sucrose water intake/total liquid intake)×100%) and sucrose water consumption amount per gram of body weight of each rat.

[1] = 1.5 mg/kg and 0.75 mg/kg, after the fifth week (P<0.01 or 0.05)

Row | SMILES | effect on sucrose water intake of CUMS rats | sucrose water intake of CUMS rats as compared to the model group [1] | sucrose water intake of CUMS rats as compared to the model group (20 mg/kg, during the fifth week (P<0.01))
1 | CC(C)=CCCC(C)(O)C1CCC2(C)C1C(=NO)CC1C3(C)CCC(=NO)C(C)(C)C3CCC12C (centres unmarked) [Compound I] | not significant | statistically significant difference | –
2 | CC(C)(O)C1CCC(C)(C2CCC3(C)C2C(=NO)CC2C4(C)CCC(=NO)C(C)(C)C4CCC23C)O1 (centres unmarked) [Compound II] | not significant | statistically significant difference | –
3 | COc1ccc(C(CN(C)C)C2(O)CCCCC2)cc1 (centres unmarked) [Venlafaxine, venlafaxine hydrochloride, reference compound] | – | – | statistically significant difference
